Test system: 616215-338-R-J1-PDC spheroids with HUVEC/MSC, viability
Assay: Anticancer human tumor 616215-338-R-J1-PDC patient-derived colon adenocarcinoma cell line growth inhibition [PI3K]
Settings: for IC50: curve of first compound; for viability, T/C: stronger effect = lower value
Source text: Combinatorial screen of targeted agents with the PI3K inhibitors inavolisib, alpelisib, duvelisib, and copanlisib in multi-cell type tumor spheroids
A high-throughput screen of multi-cell type tumor spheroids was designed to identify active combinations of targeted small molecules and PI3K pathway inhibitors. Complex spheroids include a stromal component modeled by human endothelial cells (HUVEC) and fibroblasts modeled by human mesenchymal stem cells (MSCs). The concentration ranges selected for each drug and investigational agent were based upon clinically achievable concentrations if the clinical Cmax of the agent was known.
Compounds. The drugs and investigational agents: inavolisib (NSC800729), alpelisib (NSC765974), duvelisib (NSC772469), copanlisib (NSC816437), ipatasertib (NSC767898), afuresertib (NSC778305), talazoparib (NSC767125), sapanisertib (NSC764658), selumetinib (NSC741078), tovorafenib (DAY101, NSC766906), vemurafenib (NSC761431), ravoxertinib (NSC781343), sotorasib (NSC818433), MRTX1133 (NSC 836407), abemaciclib (NSC 768073), palbociclib (NSC758247), venetoclax (NSC 766270), SY5609 (NSC837396), enzalutamide (NSC755605), and darolutamide (NSC825331), were obtained from the National Cancer Institute (NCI) Developmental Therapeutics Program Chemical Repository. The FDA-approved anticancer drug set is available from the NCI Developmental Therapeutics Program. […] The stock solutions were prepared in dimethyl sulfoxide (DMSO, Sigma-Aldrich, St. Louis, MO, cat. D2650) at 800-fold the tested concentration and stored at -70 degrees C prior to their use. All drugs and investigational agents were tested over a range starting from a high concentration at or near the clinical Cmax and decreasing in half-log increments. If the clinical Cmax for an agent had not been determined, the highest concentration tested was 10 microM.
Cell Culture. All cells were maintained in an incubator at 37 degrees C and 5% CO2 with 95% humidity. The PDC lines were cultured according to standard operating procedures established by the NCI PDMR (https://pdmr.cancer.gov/sops/default.htm). All PDCs were thawed and cultured in Matrigel-coated flasks prepared with a working solution of 1X Ham's F-12 nutrient mix, without supplementation (Invitrogen, Waltham, MA, cat. 11765054), 100 U/mL penicillin-streptomycin (Invitrogen, cat. 15140122), and 2.5% Matrigel (Corning Inc., Corning, NY, cat. 354248) for the first three passages. The 354836-022-R-J1-PDC, 475296-252-R-J1-PDC, and 997726-040-R-J2-PDC lines were cultured in 6A media, which includes advanced DMEM/F-12 (Thermo Fisher Scientific, cat. 12634028), 10 mM HEPES (Thermo Fisher Scientific, cat. 15630080), 1X GlutaMAX supplement (Thermo Fisher Scientific, cat. 35050061), 0.1 mg/mL primocin (InvivoGen, San Diego, CA, cat. ant-pm-2), 10% defined fetal bovine serum, heat inactivated (HyClone Laboratories Inc., Logan, UT, cat. SH30070.03HI), 50% L-WRN conditioned media (ATCC, cat. CRL-3276), 1.25 mM N-Acetyl-L-cysteine (Sigma-Aldrich, cat. A9165), 10 mM nicotinamide (Sigma-Aldrich, cat. N0636), 1X B-27 supplement (Thermo Fisher Scientific, cat. 17504044), 1X N-2 supplement (Thermo Fisher Scientific, cat. 17502048), and 10 microM Y-27632 dihydrochloride (Tocris Bioscience, Bristol, United Kingdom, cat. 1254). The 624824-186-R-J2-PDC line was cultured in 6C/Colon 1B media, which includes all 6A media components plus 50 ng/mL human EGF recombinant protein (Thermo Fisher Scientific, cat. PHG0311). […]

[1] = second compound 0.0316 µM, first compound 0.0316 µM
[2] = second compound 0.0316 µM, first compound 0.1 µM
[3] = second compound 0.0316 µM, first compound 0.316 µM
[4] = second compound 0.0316 µM, first compound 1 µM
[5] = second compound 0.0316 µM, first compound 3.16 µM
[6] = second compound 0.0316 µM, first compound 10 µM
[7] = second compound 0.1 µM, first compound 0.0316 µM
[8] = second compound 0.1 µM, first compound 0.1 µM
[9] = second compound 0.1 µM, first compound 0.316 µM
[10] = second compound 0.1 µM, first compound 1 µM
[11] = second compound 0.1 µM, first compound 3.16 µM
[12] = second compound 0.1 µM, first compound 10 µM
[13] = second compound 0.316 µM, first compound 0.0316 µM
[14] = second compound 0.316 µM, first compound 0.1 µM
[15] = second compound 0.316 µM, first compound 0.316 µM
[16] = second compound 0.316 µM, first compound 1 µM
[17] = second compound 0.316 µM, first compound 3.16 µM
[18] = second compound 0.316 µM, first compound 10 µM
[19] = second compound 1 µM, first compound 0.0316 µM
[20] = second compound 1 µM, first compound 0.1 µM
[21] = second compound 1 µM, first compound 0.316 µM
[22] = second compound 1 µM, first compound 1 µM
[23] = second compound 1 µM, first compound 3.16 µM
[24] = second compound 1 µM, first compound 10 µM
[25] = second compound 0.00316 µM, first compound 0.0316 µM
[26] = second compound 0.00316 µM, first compound 0.1 µM
[27] = second compound 0.00316 µM, first compound 0.316 µM
[28] = second compound 0.00316 µM, first compound 1 µM
[29] = second compound 0.00316 µM, first compound 3.16 µM
[30] = second compound 0.00316 µM, first compound 10 µM
[31] = second compound 0.01 µM, first compound 0.0316 µM
[32] = second compound 0.01 µM, first compound 0.1 µM
[33] = second compound 0.01 µM, first compound 0.316 µM
[34] = second compound 0.01 µM, first compound 1 µM
[35] = second compound 0.01 µM, first compound 3.16 µM
[36] = second compound 0.01 µM, first compound 10 µM
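Also: spheroids exposed to agents for seven days before the viability read.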

Cn1ncc(Cl)c1-c1cc(C(=O)NC(CN)Cc2cccc(F)c2)sc1Cl (stereo unspecified) + Cc1nc(NC(=O)N2CCCC2C(N)=O)sc1-c1ccnc(C(C)(C)C(F)(F)F)c1
IC50 (second compound 0.0316 µM): 6.95 µM
IC50 (second compound 0.1 µM): 6.73 µM
IC50 (second compound 0.316 µM): 6.48 µM
IC50 (second compound 1 µM): 9.17 µM
IC50 (second compound 3.16 µM): 5.85 µM
IC50 (second compound 10 µM): 4.01 µM
viability, T/C [1]: 96%
viability, T/C [2]: 93.5%
viability, T/C [3]: 102%
viability, T/C [4]: 91.5%
viability, T/C [5]: 82.5%
viability, T/C [6]: 35.2%
viability, T/C [7]: 102%
viability, T/C [8]: 95.8%
viability, T/C [9]: 92.3%
viability, T/C [10]: 89%
viability, T/C [11]: 76.3%
viability, T/C [12]: 36.4%
viability, T/C [13]: 99.4%
viability, T/C [14]: 96%
viability, T/C [15]: 98.8%
viability, T/C [16]: 96.8%
viability, T/C [17]: 67.6%
viability, T/C [18]: 39.4%
viability, T/C [19]: 109%
viability, T/C [20]: 92.9%
viability, T/C [21]: 106%
viability, T/C [22]: 98.4%
viability, T/C [23]: 73.7%
viability, T/C [24]: 48.1%
viability, T/C (second compound 3.16 µM, first compound 0.0316 µM): 91.8%
viability, T/C (second compound 3.16 µM, first compound 0.1 µM): 95%
viability, T/C (second compound 3.16 µM, first compound 0.316 µM): 94.1%
viability, T/C (second compound 3.16 µM, first compound 1 µM): 87.7%
viability, T/C (second compound 3.16 µM, first compound 3.16 µM): 70%
viability, T/C (second compound 3.16 µM, first compound 10 µM): 32.6%
viability, T/C (second compound 10 µM, first compound 0.0316 µM): 89.9%
viability, T/C (second compound 10 µM, first compound 0.1 µM): 90.9%
viability, T/C (second compound 10 µM, first compound 0.316 µM): 86.3%
viability, T/C (second compound 10 µM, first compound 1 µM): 70.5%
viability, T/C (second compound 10 µM, first compound 3.16 µM): 59.6%
viability, T/C (second compound 10 µM, first compound 10 µM): 22.8%

CC(Cn1ccc(-c2ccc(C#N)c(Cl)c2)n1)NC(=O)c1cc(C(C)O)[nH]n1 (stereo unspecified) + COc1c(OCCCN2CCOCC2)ccc2c3n(c(=NC(=O)c4cnc(N)nc4)nc12)CCN3
IC50 (second compound 0.00316 µM): > 10 µM
IC50 (second compound 0.01 µM): > 10 µM
IC50 (second compound 0.0316 µM): > 10 µM
IC50 (second compound 0.1 µM): > 10 µM
IC50 (second compound 0.316 µM): < 0.0316 µM
IC50 (second compound 1 µM): < 0.0316 µM
viability, T/C [25]: 93.9%
viability, T/C [26]: 93.3%
viability, T/C [27]: 88.6%
viability, T/C [28]: 95.8%
viability, T/C [29]: 104%
viability, T/C [30]: 91.3%
viability, T/C [31]: 99.4%
viability, T/C [32]: 86.7%
viability, T/C [33]: 100%
viability, T/C [34]: 90.8%
viability, T/C [35]: 90.3%
viability, T/C [36]: 86.2%
viability, T/C [1]: 99.1%
viability, T/C [2]: 102%
viability, T/C [3]: 99.9%
viability, T/C [4]: 109%
viability, T/C [5]: 93.2%
viability, T/C [6]: 84.2%
viability, T/C [7]: 90.8%
viability, T/C [8]: 91.4%
viability, T/C [9]: 90.2%
viability, T/C [10]: 96.8%
viability, T/C [11]: 89.2%
viability, T/C [12]: 83.4%
viability, T/C [13]: 35.2%
viability, T/C [14]: 34.7%
viability, T/C [15]: 45.3%
viability, T/C [16]: 33.5%
viability, T/C [17]: 36%
viability, T/C [18]: 28.5%
viability, T/C [19]: 27.7%
viability, T/C [20]: 17.2%
viability, T/C [21]: 20.3%
viability, T/C [22]: 24.8%
viability, T/C [23]: 18.8%
viability, T/C [24]: 17.8%

CCCS(=O)(=O)Nc1ccc(F)c(C(=O)c2c[nH]c3ncc(-c4ccc(Cl)cc4)cc23)c1F + CC(Nc1ccc2c(c1)OCCn1cc(N3C(=O)OCC3C(F)F)nc1-2)C(N)=O
IC50 (second compound 0.00316 µM): 4.92 µM
IC50 (second compound 0.01 µM): 4.9 µM
IC50 (second compound 0.0316 µM): 4.61 µM
IC50 (second compound 0.1 µM): 4.47 µM
IC50 (second compound 0.316 µM): 4.68 µM
IC50 (second compound 1 µM): 3.81 µM
viability, T/C [25]: 91.3%
viability, T/C [26]: 92.7%
viability, T/C [27]: 90.8%
viability, T/C [28]: 88.8%
viability, T/C [29]: 79.9%
viability, T/C [30]: 2.03%
viability, T/C [31]: 97.9%
viability, T/C [32]: 93.1%
viability, T/C [33]: 92.2%
viability, T/C [34]: 92.9%
viability, T/C [35]: 79%
viability, T/C [36]: 2.65%
viability, T/C [1]: 94.6%
viability, T/C [2]: 103%
viability, T/C [3]: 91.3%
viability, T/C [4]: 95.4%
viability, T/C [5]: 72.9%
viability, T/C [6]: 3.28%
viability, T/C [7]: 107%
viability, T/C [8]: 98%
viability, T/C [9]: 92.7%
viability, T/C [10]: 103%
viability, T/C [11]: 69.9%
viability, T/C [12]: 3.51%
viability, T/C [13]: 103%
viability, T/C [14]: 103%
viability, T/C [15]: 109%
viability, T/C [16]: 102%
viability, T/C [17]: 73.3%
viability, T/C [18]: 4.84%
viability, T/C [19]: 108%
viability, T/C [20]: 98.1%
viability, T/C [21]: 106%
viability, T/C [22]: 102%
viability, T/C [23]: 58.8%
viability, T/C [24]: 4.52%

— PubChem BioAssay AID1963978 (Molecular Pharmacology Branch, DTP, NCI, 2024)
